Assay results taken from PMC10184130.
Read-outs that look alike come from different tables or passages of the source.

Columns and labels:
mouse C1s = target: T1, mouse C1s (Mus musculus, UniProt Q8CG14); assay: Mouse C1s enzyme assay; type: biochemical; conditions: supplementary csv
T1 construct: Recombinant mouse C1s (22–694 aa) fused with both the N-terminal IgG signal peptide; IgG signal peptide (N); His tag (C); made in house; host or cells: Expi293 cells
T1 sequence (Q8CG14 438-688 limits assumed): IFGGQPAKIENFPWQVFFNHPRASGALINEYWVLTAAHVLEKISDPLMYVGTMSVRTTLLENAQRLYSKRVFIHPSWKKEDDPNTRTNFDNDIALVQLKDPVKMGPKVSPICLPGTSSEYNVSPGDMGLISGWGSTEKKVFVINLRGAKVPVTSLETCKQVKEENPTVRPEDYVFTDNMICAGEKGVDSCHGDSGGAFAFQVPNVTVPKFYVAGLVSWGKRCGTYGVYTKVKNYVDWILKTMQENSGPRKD
T1 sequence (Q8CG14 16-437 partner limits assumed): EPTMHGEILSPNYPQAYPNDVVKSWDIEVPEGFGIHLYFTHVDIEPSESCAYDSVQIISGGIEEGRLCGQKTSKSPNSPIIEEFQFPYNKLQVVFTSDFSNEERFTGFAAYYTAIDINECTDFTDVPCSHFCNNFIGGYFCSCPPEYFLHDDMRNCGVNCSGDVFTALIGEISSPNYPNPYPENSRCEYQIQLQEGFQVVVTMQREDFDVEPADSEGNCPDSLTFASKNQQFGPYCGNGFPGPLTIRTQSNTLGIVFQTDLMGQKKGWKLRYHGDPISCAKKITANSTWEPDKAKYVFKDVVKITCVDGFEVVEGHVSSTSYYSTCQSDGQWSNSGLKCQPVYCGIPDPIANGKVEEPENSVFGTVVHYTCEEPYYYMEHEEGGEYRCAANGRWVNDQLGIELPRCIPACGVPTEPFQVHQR
Text: Recombinant mouse C1s (22–694 aa) fused with both the N-terminal IgG signal peptide and the C-terminal His tag was expressed in Expi293 cells and purified. Mouse C1s was activated by recombinant human C1r prior to use. Mouse C1s assay conditions were the same as for human C1s, except that the enzyme solution concentration was 30 nmol/L.

human thrombin = target: T2, human thrombin (Homo sapiens, UniProt P00734); assay: Human thrombin enzyme assay; type: biochemical; conditions: supplementary csv
T2 construct: purchased AnaSpec
Method: The human thrombin enzyme activity was determined by a SensoLyte 520 thrombin activity assay kit (AnaSpec, CA, USA). Purified human thrombin and the substrate were diluted in the assay buffer 1. After 20 nL of compound solution was added to a 384-well black plate, 3 μL of the 2 μmol/L 5-FAM/QXLTM 520 thrombin substrate was added to the plate. Then, 8 nmol/L human thrombin was added to the plate and incubated at room temperature for 60 min. The fluorescence at an excitation wavelength of 485 nm and an emission wavelength of 535 nm was detected using an EnVision multilabel plate reader.

human trypsin = assay: Human trypsin enzyme assay; type: biochemical; conditions: supplementary csv
Method: Recombinant human trypsin (FUJIFILM Wako, Osaka, Japan) and the substrate were diluted in an assay buffer [50 mmol/L Tris–HCl (pH 7.5), 145 mmol/L NaCl, 2 mmol/L CaCl2, and 0.01% (w/v) Tween 20]. After 20 nL of compound solution was added to a 384-well black plate, 3 μL of substrate solution containing 25 μmol/L Boc-Phe-Ser-Arg-MCA (Peptide Institute, Osaka, Japan) was added to the plate. Then, 6 mU/mL human trypsin was added to the plate and incubated at room temperature for 60 min. The fluorescence at an excitation wavelength of 360 nm and an emission wavelength of 460 nm was detected using an EnVision multilabel plate reader.

human plasmin = target: T3, human plasmin (Homo sapiens, UniProt P00747); assay: Human plasmin enzyme assay; type: biochemical; conditions: supplementary csv
T3 construct: purchased Zedira
T3 sequence (P00747 581-810 limits assumed): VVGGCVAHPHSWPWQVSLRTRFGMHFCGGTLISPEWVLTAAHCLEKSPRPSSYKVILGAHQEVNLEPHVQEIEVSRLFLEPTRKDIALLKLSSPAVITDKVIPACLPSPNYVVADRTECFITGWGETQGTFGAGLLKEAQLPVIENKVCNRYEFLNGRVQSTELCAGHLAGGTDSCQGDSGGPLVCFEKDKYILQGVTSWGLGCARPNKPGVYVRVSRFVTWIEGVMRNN
Method: Recombinant human plasmin (Zedira, Hesse, Germany) and the substrate were diluted in an assay buffer [50 mmol/L Tris–HCl (pH 7.5), 150 mmol/L NaCl, and 0.01% (w/v) Tween 20]. Compounds were dissolved in DMSO and then diluted in an assay buffer. After 5 μL of compound solution was added to a 384-well black plate, 5 μL of substrate solution containing 75 μmol/L Boc-Val-Leu-Lys-MCA (Peptide Institute, Osaka, Japan) was added to the plate. Then, 11.25 nmol/L human plasmin was added to the plate and incubated at room temperature for 60 min. The fluorescence at an excitation wavelength of 380 nm and an emission wavelength of 460 nm was detected using an EnVision multilabel plate reader.

[1] = tested on: C5b-9 MAC formation induced by human serum; assay: C5b-9 MAC complex formation study (Wieslab classical pathway kit); type: biochemical; conditions: in vitro, dose-dependent
Method: The levels of the complement activation product C5b-9 MAC were determined by a Wieslab complement system classical pathway kit (Svar Life Science, Malmo, Sweden). Briefly, diluted human serum was preincubated with the reagent diluent containing 0.3% DMSO or a range of concentrations of C1s inhibitors for 10 min at room temperature. Then, the preincubated serum was added to each well, and the plate was incubated for 30 min at 37 ° C with a lid. The plate was then washed three times, and subsequent processes were conducted by following the manufacturer’s instructions. Lastly, the absorbance was measured with a Multiskan microplate photometer (Thermo Fisher Scientific, MA, USA), and the levels of complement activation were calculated based on the standard curve generated with calibrators with serially diluted human serum. The samples with serum treatment were set as 100%, and the activities of the negative control (NC) without the addition of serum were set as 0%.

[2] = Pharmacokinetics analysis in mice (oral; plasma and brain); type: in vivo; conditions: for AUC0-24h / Cmax / MRT: plasma; for concentration at 2 h / Kp at 2 h / concentration at 24 h: male, C57BL/6J, mouse, brain; for Kp at 2 h: read-out: Brain to plasma ratio 2 h
Method: Male C57BL/6J mice were purchased from The Jackson Laboratory Japan, Inc. (Kanagawa, Japan). […] The compound was dissolved in 10% DMSO/10% Cremophor EL/20% PEG400/60% 0.1 mol/L citric acid solution and administered orally at doses of 10, 30, or 100 mg/kg. Blood samples were collected into heparinized tubes at the designated time points (0.5, 1, 2, 4, 8, and 24 h postdosing), and brains were also collected at 2 and 24 h postdosing. Plasma was separated from the blood samples by centrifugation. The plasma and brain concentrations were quantified with high-performance liquid chromatography–tandem mass spectrometry. The lower limit of quantitation was 1 ng/mL for plasma and 5 ng/mL for brains.

IC50 (mouse C1s): 0.061 µM | IC50 (human thrombin): > 30 µM | IC50 (human trypsin): > 30 µM | IC50 (human plasmin): > 30 µM | AUC0-24h ([2]; 10 mg/kg): 6017.8 ± 390.4 ng·h/mL | Cmax ([2]; 10 mg/kg): 1032.5 ± 173.0 ng/mL | MRT ([2]; 10 mg/kg): 4.31 ± 0.23 h | AUC0-24h ([2]; 30 mg/kg): 21928.6 ± 1428.2 ng·h/mL | Cmax ([2]; 30 mg/kg): 2583.3 ± 267.1 ng/mL | MRT ([2]; 30 mg/kg): 5.02 ± 0.18 h | AUC0-24h ([2]; 100 mg/kg): 139341.0 ± 36760.1 ng·h/mL | Cmax ([2]; 100 mg/kg): 8895.5 ± 1516.8 ng/mL | MRT ([2]; 100 mg/kg): 7.66 ± 0.99 h | concentration at 2 h ([2]; 10 mg/kg): 560 ± 106 ng/g | Kp at 2 h ([2]; 10 mg/kg): 0.7 | concentration at 24 h ([2]; 10 mg/kg): 5.2 ± 0.2 ng/g | concentration at 2 h ([2]; 30 mg/kg): 3830 ± 935 ng/g | Kp at 2 h ([2]; 30 mg/kg): 1.7 | concentration at 24 h ([2]; 30 mg/kg): 8.9 ± 3.8 ng/g | concentration at 2 h ([2]; 100 mg/kg): 33600 ± 19300 ng/g | Kp at 2 h ([2]; 100 mg/kg): 6 | concentration at 24 h ([2]; 100 mg/kg): 1860 ± 2400 ng/g
Structure (SMILES): Cc1cc([C@H]2CN(c3cc(F)c4c(N)nncc4c3)CCN2c2cccc(F)c2)no1 [Compound (R)-8, 8-Fluoro-6-[(3R)-4-(3-fluorophenyl)-3-(5-methyl-1,2-oxazol-3-yl)piperazin-1-yl]phthalazin-1-amine]
Inhibition of MAC formation induced by human serum [1]: significantly inhibited
